In data set [1] the test system is normal mice. The experiment in a line: Y maze test in normal mice. It counts as in vivo, mouse. As to conditions: 30 mg/kg i.p., 60 minutes after. On the procedure:
A vehicle (10% DMSO solution; dissolved in saline; n=11) or PA-915 (30 mg/kg; n=10) was intraperitoneally administered (0.1 mL/10 g) to male C57BL/6J mice (8 to 12 weeks old). After a lapse of 60 minutes after administration, the mice were allowed to explore the Y maze for 5 minutes in a laboratory (illuminance: 20 lx). The data was indicated by mean±standard error.

Data set [2] relates to normal mice. Nature of the data set: Novel object recognition test in normal mice. Particulars: 30 mg/kg i.p., 60 minutes later. It counts as in vivo, mouse. On the procedure: Male C57BL/6J mice (8 weeks old) were acclimatized to the test box by exploration at 10 min/day for 3 days. On the fourth day, two objects differing in shape were placed in the test box, and the mice were allowed to freely explore the test box for 10 minutes (training trial). 23 hours after the completion of exploration, a vehicle (10% DMSO solution; dissolved in saline; n=10) or PA-915 (30 mg/kg; n=10) was intraperitoneally administered thereto (0.1 mL/10 g). 60 minutes later, one of the two objects was changed to a novel object, and the mice were allowed to explore the test box for 5 minutes (retention trial). Novel and known object exploration times were measured. The results are shown in FIGS. 36B and 36C (B: discrimination index, C: novel object exploration ratio). The data was indicated by mean±standard error.

One compound from US12458643B2, “Antidepressant/anxiolytic drug in which PAC1 receptor antagonist is used” (KAGOSHIMA UNIVERSITY, priority 2020, dated 2025) can be followed below.

As for `O=C(NCCc1c[nH]cn1)C1CC(=O)N(c2n[nH]c3c(Cl)cccc23)C1` (centres unmarked) [PA-915, N-[2-(1H-imidazol-4-yl)ethyl]-1-(7-chloro-1H-indazol-3-yl)-5-oxo-3-pyrrolidinecarboxamide], in data set [1], the “influence on cognitive function (Y maze test)” value is recorded as “had no influence on the cognitive function”. For the same compound, the “influence on cognitive function (novel object recognition test)” value in data set [2] was “had no influence on the cognitive function”.
